Data set [1] relates to Escherichia coli. Put plainly: Test for mutagenic activity in Escherichia coli strains. The data set is classed as cell-based. Conditions: 3-1000 mg/plate (TTA), 2-5000 mg/plate (TSA). An excerpt:
(§1) Tests for mutagenic activity have been performed by Covance Laboratories Limited, England. […] Furthermore, TTA was not mutagenic when tested in mouse lymphoma cells […] L5178Y.

Data set [2] relates to cultured Chinese hamster ovary cells. Briefly: Chromosomal aberrations in cultured Chinese hamster ovary cells. The conditions noted are these: doses tested 12-140 mg/ml.
The subject of data set [3] is mouse lymphoma cells, L5178Y. Put plainly: Mutagenicity test in mouse lymphoma cells L5178Y. The data set is classed as cell-based. Conditions: concentration 2.5-50 mg/ml.
Excerpt: as §1

The nature of data set [4]: Lipid lowering effect in normal Wistar rats (Example 4). Type of data set: in vivo. Conditions: gavage once daily for 7 days; dose mg/day/kg body weight: TSA 15, EPA 1500, TTA 150.
Experimental: Phospholipids were measured by the enzymatic method of bioMérieux, Marcy-l{grave over ( )}Etoile, France, Triacylglycerol by the Technicon Method no. SA4-0324L90, USA and Cholesterol by the Technicon Method no. SA4-0305L90, USA.
Male Wistar rats, weighing 180-200 g at the start of the experiment, were housed individually in metal wire cages in a room maintained at 12 h light-dark cycles and a constant temperature of 20±3° C. The animals were acclimatised for one week under these conditions before the start of the experiments.
TTA, TSA and eicosapentaenoic acid (EPA) were suspended in 0.5% (w/v) carboxymethyl cellulose (CMC). Six animals were used for each treatment, and a 0.5% CMC solution was administrated to the rats as control. After administration of the test compound, the rats were fasted for 12 hours and anaesthetised with haloethan. The EPA and the fatty acid derivatives were administered by gastric intubation (gavage) once daily for 7 days. Blood samples were collected by cardiac puncture, and lipid concentrations in plasma were determined as outlined in the method section.
For data set [5], the system named is Salmonella typhimurium. Briefly: Test for mutagenic activity in Salmonella typhimurium strains. The data set is classed as cell-based. The conditions noted are these: 3-1000 mg/plate (TTA), 2-5000 mg/plate (TSA).
Excerpt: as §1

Data set [6] can be described thus: Hepatic levels of triacylglycerol (Example 17). The data set is classed as in vivo, Wistar rats. Conditions: fed 6 days, no prefeeding; TTA 150 mg/kg/day, TTP 300 mg/kg/day. As for the experimental part:
Male Wistar rats had free access to water and rat maintenance chow. They were fed palmitic acid or fatty acid analogues suspended in 0.5% CMC for 6 days. In some experiments TTA or TTP were fed for 3 days before feeding both for 6 days. At the end of the experiment the rats were fasted overnight, killed, the liver removed and homogenized. Triacylglycerol was measured in the homogenate.

For data set [7], the system named is mitochondrial β-oxidation. Put plainly: Effect of fatty acid analogues on mitochondrial β-oxidation in rat liver (Example 18). Conditions: [1-14C]-palmitoyl-L-carnitine as substrate. The data set is classed as in vivo.
Experimental: Freshly isolated livers from individual old Zucker rats, were homogenised in ice-cold sucrose buffer (0.25 M sucrose, 10 mM HEPES (pH 7.4) and 2 mM EDTA). Post-nuclear and mitochondrial fractions were prepared using preparative differential centrifugation according to DeDuve et al. (De Duve, C., et al., Biochem. J., 60, 604-617 1955.) Modifications, purity and yield were as described earlier (Garras, A., et al., Biochim. Biophys. Acta, 1255, 154-160 1995.). Acid soluble products were measured in post-nuclear and mitochondrial enriched fractions, using [1-^14C]-palmitoyl-CoA and [1-^14C]-palmitoyl-L-carnitine (Radio-chemical Centre, Amersham, England) as substrates as described earlier (Willumsen, N., et al., J. Lipid Res., 34, 13-22 1993. Carnitine palmitoyltransferase-I and -II activities were measured in the post-nuclear and mitochondrial fractions essentially as described by Bremer (Bremer, J., Biochim. Biophys. Acta, 665, 628-631 1981.) and 3-hydroxy-3-methylglutharyl-CoA synthase was measured according to Clinkenbeard et al. (Clinkenbeard, K. D., et al., J. Biol. Chem, 250, 3108-3116 1975.) in the mitochondrial fractions.
Obese Zucker (fa/fa) rats were given a standard chow either with (n=6) or without (n=5) 0.15% TTA. Following 21 days of treatment, rats were killed by cervical dislocation and the livers were removed. […] Values are expressed as the mean±S.D.

This is an account of results in patent publication US6441036B1 (priority 1998, dated 2002).

Consider `CCCCCCCCCCCCCC[Se]CC(=O)O` [TSA, Tetradecylselenioacetic acid], for which the Induction of mutations entry in data set [1] and in data set [5] was “did not induce mutations” in each case. Also, in data set [2], the Chromosomal aberrations result is “no aberrations were induced”. The Mutagenicity result in data set [3] was “not to be mutagenic”. The “Plasma lipids: cholesterol” value in data set [4] is listed as 20 % reduction of control. Further, the “Plasma lipids: triglycerides” value in data set [4] was 25 % reduction of control.

As for `CC/C=C\C/C=C\C/C=C\C/C=C\C/C=C\CCCC(=O)O` [EPA, eicosapentaenoic acid, reference compound], in data set [4], the “Plasma lipids: cholesterol” value was 18 % reduction of control and the “Plasma lipids: triglycerides” value is 20 % reduction of control.

With `CCCCCCCCCCCCCCSCCC(=O)O` [reference compound], in data set [6], the “Hepatic TG (triacylglycerol)” value worked out at 95.4 ± 14.7 µmol/g.

Take `CCCCCCCCCCCCCCCC(=O)O` [Palm, palmitic acid]: the “Mitochondrial β-oxidation activity” value in data set [7] worked out at 0.47 ± 0.06 nmol/min/mg protein.
